test system: Streptococcus mutans; test: Substrate activity at 6xHis-tagged Streptococcus mutans UdpK expressed in Escherichia coli BL-21(DE3) assessed as measuring ADP level in presence of ATP/NADH by PK/LDH coupled assay; details: not given

Activity [µmol/mg/min]	Compound
4.1	C/C(=C/CO)CC/C=C(/C)CC/C=C(/C)CC/C=C(\C)CC/C=C(\C)CNS(=O)(=O)c1ccc(N=Nc2ccc(N(C)C)cc2)cc1
11.5	CC(C)=CCC/C(C)=C/CC/C(C)=C/CO
6.2	CC(C)=CCC/C(C)=C/CO
21.2	CC(C)=CCC/C(C)=C\CC/C(C)=C\CO
5.9	C/C(=C/CO)CC/C=C(\C)CC/C=C(\C)CC/C=C(\C)CC/C=C(\C)CNS(=O)(=O)c1ccc(N=Nc2ccc(N(C)C)cc2)cc1
3.8	CC(C)=CCC/C(C)=C/CC/C(C)=C/CC/C(C)=C/CC/C(C)=C\CC/C(C)=C\CC/C(C)=C\CC/C(C)=C\CC/C(C)=C\CC/C(C)=C\CO
1.3	CCCCCCCCCCCCCCCCCCCCO
8.8	CC(C)=CCC/C(C)=C/CC/C(C)=C/CC/C(C)=C\CC/C(C)=C\CC/C(C)=C\CC/C(C)=C\CO
4.9	CC(C)=CCC/C(C)=C/CC/C(C)=C/CC/C(C)=C/CC/C(C)=C/CC/C(C)=C/CC/C(C)=C/CC/C(C)=C/CC/C(C)=C/CO
3.3	C/C(=C\CO)CC/C=C(\C)CC/C=C(\C)CC/C=C(\C)CC/C=C(\C)CNS(=O)(=O)c1ccc(N=Nc2ccc(N(C)C)cc2)cc1
1.9	CCCCCCCCCCCCCCCCO
9.3	CC(C)=CCC/C(C)=C/CC/C(C)=C/CC/C(C)=C/CO
2.1	CCCCCCCCCCCO
5.4	CC(C)=CCC/C(C)=C/CC/C(C)=C\CO
4	C/C(=C/CO)CC/C=C(/C)CC/C=C(\C)CC/C=C(\C)CC/C=C(\C)CNS(=O)(=O)c1ccc(N=Nc2ccc(N(C)C)cc2)cc1
3.8	CC(C)=CCC/C(C)=C/CC/C(C)=C/CC/C(C)=C\CC/C(C)=C\CC/C(C)=C\CC/C(C)=C\CC/C(C)=C\CO
4.5	CC(C)=CCC/C(C)=C/CC/C(C)=C/CC/C(C)=C\CC/C(C)=C\CC/C(C)=C\CC/C(C)=C\CC/C(C)=C\CC/C(C)=C\CC/C(C)=C\CC/C(C)=C\CC/C(C)=C\CCC(C)CCO (stereo unspecified)
5.6	C/C(=C\CO)CCCC(C)CCCC(C)CCCC(C)C (stereo unspecified)

test system: Streptococcus mutans; test: Substrate activity at wild-type Streptococcus mutans UdpK expressed in Escherichia coli C43(DE3) in presence of ATP/NADH by PK/LDH coupled assay; details: not given

Activity [µmol/mg/min]	Compound
9.4	C/C(=C/CO)CC/C=C(/C)CC/C=C(/C)CC/C=C(/C)CC/C=C(/C)CC/C=C(/C)CC/C=C(/C)CC/C=C(\C)CC/C=C(\C)CC/C=C(\C)CCCNc1ccc(N=[N+]=[N-])cc1
10.8	C/C(=C/CO)CC/C=C(/C)CC/C=C(/C)CC/C=C(/C)CC/C=C(/C)CC/C=C(/C)CC/C=C(/C)CC/C=C(\C)CC/C=C(\C)CC/C=C(\C)CCCN=[N+]=[N-]
5.1	C/C(=C/CO)CC/C=C(/C)CC/C=C(/C)CC/C=C(/C)CC/C=C(/C)CC/C=C(/C)CC/C=C(/C)CC/C=C(\C)CC/C=C(\C)CC/C=C(\C)CCCNC1CC(C)(C)N([O])C(C)(C)C1
9	C#Cc1cccc(NCCC/C(C)=C/CC/C(C)=C/CC/C(C)=C/CC/C(C)=C\CC/C(C)=C\CC/C(C)=C\CC/C(C)=C\CC/C(C)=C\CC/C(C)=C\CC/C(C)=C\CO)c1
9	C/C(=C/CO)CC/C=C(/C)CC/C=C(/C)CC/C=C(/C)CC/C=C(/C)CC/C=C(/C)CC/C=C(/C)CC/C=C(\C)CC/C=C(\C)CC/C=C(\C)CCCNc1ccc([N+](=O)[O-])cc1
11.8	CC(=O)SCCC/C(C)=C/CC/C(C)=C/CC/C(C)=C/CC/C(C)=C\CC/C(C)=C\CC/C(C)=C\CC/C(C)=C\CC/C(C)=C\CC/C(C)=C\CC/C(C)=C\CO
3.4	C/C(=C/CC/C(C)=C\CC/C(C)=C\CC/C(C)=C\COC1CCCCO1)CC/C=C(/C)CC/C=C(/C)CC/C=C(/C)CC/C=C(\C)CC/C=C(\C)CC/C=C(\C)CCCO (stereo unspecified)
5.1	C/C(=C/CO)CC/C=C(/C)CC/C=C(/C)CC/C=C(/C)CC/C=C(/C)CC/C=C(/C)CC/C=C(/C)CC/C=C(\C)CC/C=C(\C)CC/C=C(\C)CCCNCc1ccc(C2(C(F)(F)F)N=N2)cc1
7.1	C#CCNCCC/C(C)=C/CC/C(C)=C/CC/C(C)=C/CC/C(C)=C\CC/C(C)=C\CC/C(C)=C\CC/C(C)=C\CC/C(C)=C\CC/C(C)=C\CC/C(C)=C\CO
6.2	C/C(=C/CO)CC/C=C(/C)CC/C=C(/C)CC/C=C(/C)CC/C=C(/C)CC/C=C(/C)CC/C=C(/C)CC/C=C(\C)CC/C=C(\C)CC/C=C(\C)CCCNc1cc2ccc3cccc4ccc(c1)c2c34
8.1	C/C(=C/CO)CC/C=C(/C)CC/C=C(/C)CC/C=C(/C)CC/C=C(/C)CC/C=C(/C)CC/C=C(/C)CC/C=C(\C)CC/C=C(\C)CC/C=C(\C)CCC1OC1(C)C (stereo unspecified)
6.9	C/C(=C/CO)CC/C=C(/C)CC/C=C(/C)CC/C=C(/C)CC/C=C(/C)CC/C=C(/C)CC/C=C(/C)CC/C=C(\C)CC/C=C(\C)CC/C=C(\C)CCCNc1ccccc1C(N)=O

same assay, conditions: tested as the 2H-labelled form

Activity [µmol/mg/min]	Compound
9.4	CC(C)=CCC/C(C)=C/CC/C(C)=C/CC/C(C)=C/CC/C(C)=C\CC/C(C)=C\CC/C(C)=C\CC/C(C)=C\CC/C(C)=C\CC/C(C)=C\CC/C(C)=C\CO

Source: ChEMBL document CHEMBL5104096, “Undecaprenol kinase: Function, mechanism and substrate specificity of a potential antibiotic target” (Eur J Med Chem, 2021)
